Source: patent US11414379B2, “SPAK kinase inhibitors as neuroprotective agents” (United States Government as represented by the Department …, priority 2018, dated 2022)

Legend:
MARK3 = MARK3 (Homo sapiens, UniProt P27448); assay: Kinase panel (Dundee profiling); type: biochemical; conditions: read-out: % residual kinase activity
Experimental: (§1) The kinase selectivity of ZT-1a was further assessed using standard radioisotopic enzymatic assays against a panel of 140 recombinant kinases (Dundee profiling, Table 2) (Bain et al. (2007) The Biochemical journal 408, 297-315). ZT-1a at a concentration of 10 μM inhibited only MAPKAP-K2 activity 85±7% compared to DMSO control, representing high kinase selectivity.
(§2) Referring to Table 2, ZT-1a was tested at 10 and 1 μM against a panel of 140 recombinant kinases in an enzymatic activity-based assay performed by the International Centre for Kinase Profiling in the MRC Protein Phosphorylation and Ubiquitylation Unit. Values represent % residual kinase activity (mean+/−SEM, n=3). Kinases labelled with an asterick* are inhibited ≥50% by ZT-1a.

RSK1 = RSK1 (Homo sapiens, UniProt Q15418); assay: Kinase panel (Dundee profiling); type: biochemical; conditions: read-out: % residual kinase activity
Chain of RSK1 (Q15418 whole entry, species assumed): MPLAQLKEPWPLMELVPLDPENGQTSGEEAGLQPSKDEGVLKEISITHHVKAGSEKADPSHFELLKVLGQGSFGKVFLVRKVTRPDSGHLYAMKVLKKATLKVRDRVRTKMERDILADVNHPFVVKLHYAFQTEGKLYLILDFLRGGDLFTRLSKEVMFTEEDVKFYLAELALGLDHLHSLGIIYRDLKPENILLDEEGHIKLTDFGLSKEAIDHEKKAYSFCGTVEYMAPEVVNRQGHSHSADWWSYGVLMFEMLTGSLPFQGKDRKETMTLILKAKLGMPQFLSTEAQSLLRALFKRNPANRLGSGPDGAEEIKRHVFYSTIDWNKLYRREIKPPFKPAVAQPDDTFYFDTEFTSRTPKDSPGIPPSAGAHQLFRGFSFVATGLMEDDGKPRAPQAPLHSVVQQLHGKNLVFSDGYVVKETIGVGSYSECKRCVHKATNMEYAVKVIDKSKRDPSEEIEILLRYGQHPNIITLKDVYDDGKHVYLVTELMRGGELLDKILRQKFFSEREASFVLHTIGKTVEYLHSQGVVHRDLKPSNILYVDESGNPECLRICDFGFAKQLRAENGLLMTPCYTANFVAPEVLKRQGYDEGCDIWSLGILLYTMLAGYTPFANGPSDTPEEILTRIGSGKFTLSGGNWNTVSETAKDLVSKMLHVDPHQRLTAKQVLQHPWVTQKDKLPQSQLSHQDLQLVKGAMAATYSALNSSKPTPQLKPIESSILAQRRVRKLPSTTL
Experimental: as §1, §2

ULK2 = ULK2 (Homo sapiens, UniProt Q8IYT8); assay: Kinase panel (Dundee profiling); type: biochemical; conditions: read-out: % residual kinase activity
Chain of ULK2 (Q8IYT8 whole entry, species assumed): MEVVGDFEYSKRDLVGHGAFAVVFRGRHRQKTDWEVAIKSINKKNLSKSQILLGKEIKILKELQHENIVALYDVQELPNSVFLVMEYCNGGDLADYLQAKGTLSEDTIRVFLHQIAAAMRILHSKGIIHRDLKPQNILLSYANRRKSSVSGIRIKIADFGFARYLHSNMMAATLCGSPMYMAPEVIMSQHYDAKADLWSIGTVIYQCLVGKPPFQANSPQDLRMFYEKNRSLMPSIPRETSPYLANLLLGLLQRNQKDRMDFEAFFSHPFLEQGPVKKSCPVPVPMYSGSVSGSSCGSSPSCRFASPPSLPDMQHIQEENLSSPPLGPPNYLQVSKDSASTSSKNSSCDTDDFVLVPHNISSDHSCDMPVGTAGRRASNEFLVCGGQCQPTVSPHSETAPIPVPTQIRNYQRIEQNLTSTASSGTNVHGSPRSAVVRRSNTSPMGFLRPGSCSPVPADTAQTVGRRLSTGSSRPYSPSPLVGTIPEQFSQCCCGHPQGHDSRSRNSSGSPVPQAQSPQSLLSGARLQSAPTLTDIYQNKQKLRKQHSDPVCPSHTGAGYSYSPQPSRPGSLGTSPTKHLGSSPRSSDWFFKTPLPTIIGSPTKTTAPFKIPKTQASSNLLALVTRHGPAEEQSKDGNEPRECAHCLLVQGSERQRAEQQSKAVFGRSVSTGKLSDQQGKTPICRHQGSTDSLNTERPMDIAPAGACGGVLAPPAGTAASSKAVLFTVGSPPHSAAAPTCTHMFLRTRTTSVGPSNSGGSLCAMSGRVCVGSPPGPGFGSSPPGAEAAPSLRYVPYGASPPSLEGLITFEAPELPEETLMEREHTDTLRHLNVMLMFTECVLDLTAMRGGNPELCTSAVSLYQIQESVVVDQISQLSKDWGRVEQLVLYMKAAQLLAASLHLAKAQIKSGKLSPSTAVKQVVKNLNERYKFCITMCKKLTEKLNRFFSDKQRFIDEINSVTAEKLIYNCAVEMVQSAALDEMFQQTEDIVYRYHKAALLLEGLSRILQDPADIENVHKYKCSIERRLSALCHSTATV
Experimental: as §1, §2

CK2 = CK2 (Homo sapiens, UniProt P68400); assay: Kinase panel (Dundee profiling); type: biochemical; conditions: read-out: % residual kinase activity
Experimental: as §1, §2

p38d MAPK = p38d MAPK (Homo sapiens, UniProt O15264); assay: Kinase panel (Dundee profiling); type: biochemical; conditions: read-out: % residual kinase activity
Experimental: as §1, §2

BRSK2 = BRSK2 (Homo sapiens, UniProt Q8IWQ3); assay: Kinase panel (Dundee profiling); type: biochemical; conditions: read-out: % residual kinase activity
Experimental: as §1, §2

SmMLCK = SmMLCK (Homo sapiens, UniProt Q15746); assay: Kinase panel (Dundee profiling); type: biochemical; conditions: read-out: % residual kinase activity
Chain of SmMLCK (Q15746 923-1914): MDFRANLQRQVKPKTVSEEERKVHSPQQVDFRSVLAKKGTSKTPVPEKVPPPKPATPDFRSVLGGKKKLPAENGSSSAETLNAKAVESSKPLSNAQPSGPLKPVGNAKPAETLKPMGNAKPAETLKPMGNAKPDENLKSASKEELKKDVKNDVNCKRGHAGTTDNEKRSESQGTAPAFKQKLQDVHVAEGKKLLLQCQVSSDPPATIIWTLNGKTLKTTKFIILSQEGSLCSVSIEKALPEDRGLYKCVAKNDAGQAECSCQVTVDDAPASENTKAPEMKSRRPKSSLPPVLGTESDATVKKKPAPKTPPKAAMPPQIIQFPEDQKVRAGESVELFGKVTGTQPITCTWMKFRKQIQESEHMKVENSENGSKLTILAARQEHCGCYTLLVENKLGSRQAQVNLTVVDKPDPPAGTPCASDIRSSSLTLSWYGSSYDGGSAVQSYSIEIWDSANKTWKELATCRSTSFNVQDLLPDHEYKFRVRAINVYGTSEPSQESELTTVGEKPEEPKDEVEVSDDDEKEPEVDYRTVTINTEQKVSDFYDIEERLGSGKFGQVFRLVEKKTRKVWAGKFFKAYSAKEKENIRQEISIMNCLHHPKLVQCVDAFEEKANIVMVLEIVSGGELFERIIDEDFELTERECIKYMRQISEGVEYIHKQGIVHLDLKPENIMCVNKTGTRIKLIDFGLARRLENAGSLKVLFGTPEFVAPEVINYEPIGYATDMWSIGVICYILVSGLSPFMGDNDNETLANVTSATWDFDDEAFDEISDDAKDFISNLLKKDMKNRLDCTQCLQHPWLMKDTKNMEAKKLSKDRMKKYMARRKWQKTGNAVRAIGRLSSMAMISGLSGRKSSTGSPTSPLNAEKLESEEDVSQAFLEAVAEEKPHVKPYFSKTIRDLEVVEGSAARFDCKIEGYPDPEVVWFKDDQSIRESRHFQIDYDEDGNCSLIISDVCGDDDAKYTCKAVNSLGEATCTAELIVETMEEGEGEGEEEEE
Experimental: as §1, §2

CK1γ2 = CK1γ2 (Homo sapiens, UniProt P78368); assay: Kinase panel (Dundee profiling); type: biochemical; conditions: read-out: % residual kinase activity
Chain of CK1γ2 (P78368 whole entry): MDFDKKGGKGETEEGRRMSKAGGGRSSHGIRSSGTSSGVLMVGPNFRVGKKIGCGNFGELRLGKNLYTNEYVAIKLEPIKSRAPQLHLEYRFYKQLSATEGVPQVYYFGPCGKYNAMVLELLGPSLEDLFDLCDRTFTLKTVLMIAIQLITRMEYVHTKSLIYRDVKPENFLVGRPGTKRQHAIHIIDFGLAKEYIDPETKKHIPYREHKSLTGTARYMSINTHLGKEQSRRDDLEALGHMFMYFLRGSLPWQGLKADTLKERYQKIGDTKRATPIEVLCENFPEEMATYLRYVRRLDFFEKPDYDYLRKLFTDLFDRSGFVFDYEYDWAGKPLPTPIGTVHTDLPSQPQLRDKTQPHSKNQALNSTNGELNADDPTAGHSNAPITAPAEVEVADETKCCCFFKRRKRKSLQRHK
Experimental: as §1, §2

IGF-1R = IGF-1R (Homo sapiens, UniProt P08069); assay: Kinase panel (Dundee profiling); type: biochemical; conditions: read-out: % residual kinase activity
Chain of IGF-1R (P08069 31-1367, species assumed): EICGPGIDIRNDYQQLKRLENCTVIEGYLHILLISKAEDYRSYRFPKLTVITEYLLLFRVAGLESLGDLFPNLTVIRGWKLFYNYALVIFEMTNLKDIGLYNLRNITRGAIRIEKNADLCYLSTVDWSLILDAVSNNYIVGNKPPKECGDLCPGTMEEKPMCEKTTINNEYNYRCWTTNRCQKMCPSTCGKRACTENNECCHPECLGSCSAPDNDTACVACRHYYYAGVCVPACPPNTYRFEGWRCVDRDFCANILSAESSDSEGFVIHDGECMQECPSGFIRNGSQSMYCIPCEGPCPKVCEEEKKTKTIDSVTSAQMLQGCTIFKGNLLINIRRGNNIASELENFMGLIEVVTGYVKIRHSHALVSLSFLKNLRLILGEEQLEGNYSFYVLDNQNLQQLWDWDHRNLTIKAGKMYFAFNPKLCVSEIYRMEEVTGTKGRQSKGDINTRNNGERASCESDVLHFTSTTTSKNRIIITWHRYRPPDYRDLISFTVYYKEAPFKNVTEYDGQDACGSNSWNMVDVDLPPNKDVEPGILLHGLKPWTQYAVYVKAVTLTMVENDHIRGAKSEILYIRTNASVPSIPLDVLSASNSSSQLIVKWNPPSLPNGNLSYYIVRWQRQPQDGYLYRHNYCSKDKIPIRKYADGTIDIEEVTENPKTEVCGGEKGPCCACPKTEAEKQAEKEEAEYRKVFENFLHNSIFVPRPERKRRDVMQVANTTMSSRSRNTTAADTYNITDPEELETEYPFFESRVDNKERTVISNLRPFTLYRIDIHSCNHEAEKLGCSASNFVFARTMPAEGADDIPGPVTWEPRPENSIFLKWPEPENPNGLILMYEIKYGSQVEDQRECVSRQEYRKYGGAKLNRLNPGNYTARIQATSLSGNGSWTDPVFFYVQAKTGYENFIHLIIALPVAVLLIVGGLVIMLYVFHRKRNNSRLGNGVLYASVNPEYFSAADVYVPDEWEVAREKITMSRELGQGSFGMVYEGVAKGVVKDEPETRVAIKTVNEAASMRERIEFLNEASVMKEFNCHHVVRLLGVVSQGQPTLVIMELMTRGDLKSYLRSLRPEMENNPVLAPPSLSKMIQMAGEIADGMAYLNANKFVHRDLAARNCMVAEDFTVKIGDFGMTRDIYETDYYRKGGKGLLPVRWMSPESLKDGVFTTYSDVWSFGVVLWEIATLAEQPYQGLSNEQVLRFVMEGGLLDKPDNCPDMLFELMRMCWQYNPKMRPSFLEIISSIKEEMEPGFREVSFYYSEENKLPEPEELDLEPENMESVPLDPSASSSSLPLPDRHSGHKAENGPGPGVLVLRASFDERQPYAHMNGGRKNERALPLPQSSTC
Experimental: as §1, §2

MPSK1 = MPSK1 (Homo sapiens, UniProt O75716); assay: Kinase panel (Dundee profiling); type: biochemical; conditions: read-out: % residual kinase activity
Chain of MPSK1 (O75716 whole entry, species assumed): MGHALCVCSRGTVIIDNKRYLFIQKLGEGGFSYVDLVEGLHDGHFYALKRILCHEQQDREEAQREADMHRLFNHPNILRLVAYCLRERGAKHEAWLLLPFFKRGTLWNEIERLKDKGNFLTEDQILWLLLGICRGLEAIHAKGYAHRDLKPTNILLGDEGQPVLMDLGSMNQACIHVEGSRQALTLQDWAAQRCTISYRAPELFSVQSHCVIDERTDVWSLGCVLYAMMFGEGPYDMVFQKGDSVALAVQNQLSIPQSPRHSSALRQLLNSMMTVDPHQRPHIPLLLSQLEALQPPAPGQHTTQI
Experimental: as §1, §2

ABL = ABL (Homo sapiens, UniProt P00519); assay: Kinase panel (Dundee profiling); type: biochemical; conditions: read-out: % residual kinase activity
Experimental: as §1, §2

NKCC1 pThr203 = assay: Phosphorylation immunoblot in KCC2-transfected HEK293 cells; type: cell-based, human
Experimental: HEK293 (human embryonic kidney 293) cells were cultured on 10-cm-diameter dishes in DMEM supplemented with 10% (v/v) foetal bovine serum, 2 mM L-glutamine, 100 U/ml penicillin and 0.1 mg/ml streptomycin. HEK293 cells were transfected with a mixture of 20 μl of 1 mg/ml polyethylenimine (Polysciences) and 5-10 μg of plasmid DNA as described previously (Durocher et al., 2002). 36 hours post-transfection cells were stimulated with either control isotonic or hypotonic medium for a period of 30 minutes. Cells were lysed in 0.3 mL of ice-cold lysis buffer/dish, lysates were clarified by centrifugation at 4° C. for 15 minutes at 26,000 g and the supernatant aliquots were frozen in liquid nitrogen and stored at −20° C. Protein concentrations were determined using the Bradford method. Cells were treated with the indicated concentrations of the SPAK/OSR1 inhibitors. […] Hypotonic low chloride buffer was 67.5 mM sodium-gluconate, 2.5 mM potassium-gluconate, 0.25 mM CaCl2), 0.25 mM MgCl2, 0.5 mM Na2HPO4, 0.5 mM Na2SO4 and 7.5 mM HEPES (pH 7.5).
The membranes were incubated for 30 min with TBST (Tris-buffered saline, 0.05% Tween-20) containing 5% (w/v) skim milk. The blots were then washed six times with TBST and incubated for 1 hour at room temperature with secondary HRP-conjugated antibodies diluted 5000-fold in 5% (w/v) skim milk in TBST. After repeating the washing steps, signals were detected with enhanced chemiluminescence reagent. Immunoblots were developed using a film automatic processor (SRX-101; Konica Minolta Medical) and films were scanned at 600 dpi (PowerLook 1000; UMAX). Figures were generated using Photoshop/Illustrator (Adobe). The densities of bands were measured with ImageJ. For phospho-antibody immunoprecipitation, KCC isoforms were immunoprecipitated from indicated cell extracts. 2 mg of the indicated clarified cell extract were mixed with 15 μg of the indicated phospho-specific KCC antibody conjugated to 15 μl of protein-G-Sepharose, in the added presence of […] of the dephosphorylated form of the phosphopeptide antigen, and incubated 2 hours at 4° C. with gentle shaking. Immunoprecipitates were washed three times with 1 mL of lysis buffer containing 0.15 M NaCl and twice with 1 ml of buffer A. Bound proteins were eluted with 1×LDS sample buffer.
HEK293 cells were transfected with a DNA construct encoding wild type N-terminally FLAG-tagged KCC2. 36 hrs post-transfection, cells were exposed 30 min to either control isotonic or hypotonic low [C1^−] conditions, then treated in the same conditions for an additional 30 min with the indicated inhibitors at the concentrations noted. Cell lysates were subjected to SDS-PAGE and Western blotting with the indicated antibodies. See FIG. 3 for Western blot quantitation.
Referring to FIG. 2, concentration-response experiments testing effects of Closantel analogs on phosphorylation of KCC2 Thr906/Thr1007 are shown. HEK293 cells were transfected with DNA construct encoding wild type N-terminally FLAG-tagged KCC2. 36 h post-transfection, cells were exposed 30 min to either control isotonic conditions or hypotonic low Cl^− conditions, then treated in the same conditions with the specified inhibitors (1b, 1c, 1f, 1d, 1h, and 1g, respectively) at the indicated concentrations for an additional 30 min. Lysates were subjected to SDS-PAGE and Western blotting with the indicated antibodies.
Referring to FIG. 3, HEK293 cells were transfected with the DNA construct encoding wild type N-terminally FLAG-tagged KCC2. 36 h post-transfection, cells were exposed 30 min to either control isotonic or hypotonic low Cl^− conditions, then treated in the same conditions with the specified inhibitors at the indicated concen-trations for an additional 30 min. Lysates were subjected to SDS-PAGE and Western blotting with the indicated antibodies. Closantel, STOCK1S-14279 and STOCK1S-50699 were used as reference compounds.

SMILES: Cc1cc(C(C#N)c2ccc(Cl)cc2)c(Cl)cc1NC(=O)c1cc(Cl)ccc1O (stereo not shown) [ZT-1a, 5-chloro-N-(5-chloro-4-((4-chlorophenyl)(cyano)methyl)-2-methylphenyl)-2-hydroxy-benzamide]
- remaining activity at 1 µM (MARK3; 1 μM): 71 ± 6%
- remaining activity at 10 µM (MARK3; 10 μM): 68 ± 8%
- remaining activity at 1 µM (RSK1; 1 μM): 95 ± 2%
- remaining activity at 10 µM (RSK1; 10 μM): 87 ± 4%
- remaining activity at 1 µM (ULK2; 1 μM): 110 ± 11%
- remaining activity at 10 µM (ULK2; 10 μM): 49 ± 9%
- remaining activity at 1 µM (CK2; 1 μM): 72 ± 15%
- remaining activity at 10 µM (CK2; 10 μM): 59 ± 16%
- remaining activity at 1 µM (p38d MAPK; 1 μM): 95 ± 1%
- remaining activity at 10 µM (p38d MAPK; 10 μM): 112 ± 2%
- remaining activity at 1 µM (BRSK2; 1 μM): 115 ± 14%
- remaining activity at 10 µM (BRSK2; 10 μM): 104%
- remaining activity at 1 µM (SmMLCK; 1 μM): 99 ± 3%
- remaining activity at 10 µM (SmMLCK; 10 μM): 98 ± 9%
- remaining activity at 1 µM (CK1γ2; 1 μM): 112 ± 12%
- remaining activity at 10 µM (CK1γ2; 10 μM): 124 ± 23%
- remaining activity at 1 µM (IGF-1R; 1 μM): 145 ± 2%
- remaining activity at 10 µM (IGF-1R; 10 μM): 123 ± 3%
- remaining activity at 1 µM (MPSK1; 1 μM): 110 ± 6%
- remaining activity at 10 µM (MPSK1; 10 μM): 105 ± 2%
- remaining activity at 1 µM (ABL; 1 μM): 85 ± 4%
- remaining activity at 10 µM (ABL; 10 μM): 68 ± 16%
- inhibition at 1 µM (NKCC1 pThr203; Homo sapiens, read-out: inhibition of NKCC1 p-Thr203/207/212, up to, at 1 μM, n=4): ≤ 72%
- NKCC1 pThr203 (μM) hypo (NKCC1 pThr203; hypotonic low Cl- conditions, concentration inhibiting phosphorylation): 1, 1 μM
- NKCC1 pThr203 (μM) Iso (NKCC1 pThr203; isotonic conditions, concentration inhibiting phosphorylation): 1, 1 μM
